Assay results published in patent US5688771A, “Lipophilic oligopeptides with immunomodulating activity” (priority 1993, dated 1997).
Several values for one entry are separate records, joined by “and”; a condition that tells them apart may be missing. Identical values can stand only once. Entries after “also recorded” stand apart in the source; their conditions may differ. Like-named read-outs stand apart in the source and are kept apart here.

Assays:
[1] = system: Total T and B cells in splenocytes; assay: Splenic T and B cell enumeration by FACS; type: in vivo, C57BL/6 mice
From the text: Splenic cells were enumerated with the following assay. Dispersed splenocytes were reacted with fluorescein isothiocyanate-labelled murine monoclonal antibody anti-Ly5 for B cell enumeration and phycoerythrin-labelled monoclonal antibody anti-Thy 1.2 for T cell counts. The labelled cells were then enumerated with a fluorescence-activated cell sorter (FACS) (EPICS-C, Coulter Corp., Hialeah, Fla.).

[2] = system: murinecytomegalovirus (MCMV) (Smith strain); assay: Mortality in MCMV-infected mice; type: in vivo, Swiss Webster female mice; settings: for Survivors (%) / Survivors/total / Mean day to death: MCMV-infected mice; for Survivors (%) / Survivors/total: 21 days; for Mean day to death: of mice that died on or before day 21
[3] = system: murinecytomegalovirus (MCMV) (Smith strain); assay: MCMV titers in tissues; type: in vivo, Swiss Webster female mice
[4] = system: Macrophage function (IL-1 activity in splenocytes); assay: Macrophage function, IL-1 activity in splenocytes by [3H]thymidine uptake in PHA-stimulated thymocytes
Protocol: (§1) Mice were administered a 50 mg/kg dose of the immunomodulators of the invention and were subsequently sacrificed. The spleens were harvested and splenocytes isolated. Immunologic assays were conducted on those splenocytes that were taken 24 hours after final treatment. These cells were subjected to tests to determine macrophage and natural killer (NK) cell function.
Ribavarin (1-β-D-ribofuranosyl-1,2,4-triazole-carboxamide) was used in each subsequent experiment as a control.
(§2) Animals were treated with a 50 mg/kg/day dosage of one of the tested compound and were killed 24 hr after the final treatment and their spleens removed. […] Red blood cells were removed by haemolytic lysis.
Macrophage function was assessed by an interleukin-1 (IL-1) assay that utilizes responsiveness of mouse thymocytes to phytohemagglutin (PHA) which is dependent on IL-1 for its reactivity.
The cells were incubated 72 hr at 37° C. During the last 4 hr of the incubation, the cells were pulsed with [^3 H] thymidine (1 μCi/well). The cells were then harvested and [H^3 ] thymidine incorporation was determined using a direct counter.

[5] = system: IgM antibody against SRBC antigen; assay: Enzyme immunoassay of IgM antibody in blood of SRBC-immunized mice; type: in vivo; settings: Experiment 7, 10 mg/kg i.p.
Protocol: Outbred CD1 mice were immunized with 0.1% volume for volume sheep red blood cell antigen suspended in saline. The mice were injected intraperitoneally with 0.5 ml, suspension of approximately 2×10^7 cells.
The mice were injected shortly thereafter with a suspension of an immunomodulator of the invention. The immunomodulator dose was a 0.23 ml of a 1 mg/ml suspension in phosphate buffered saline. The injected dose was 10 mg/kg. The second injection was also intraperitoneal.
The mice were killed five days after injections. Blood samples were taken for analysis of immunoglobulin. The determination was made by enzyme immunoassay using an anti μ-horseradish peroxidase conjugate. The spleen was removed, transferred to a petri dish containing 2 ml of Hank's balanced salt solution and 10 mMolar Hepes buffer (HBSS-HEPES). The spleen was gently crushed by the use of forceps, and the cell suspension was filtered through cotton gauze to eliminate cellular debris. The filtered suspension was brought to volume (5 ml) by the addition of HBSS-HEPES, the cells counted, and the suspension diluted to a final concentration of 5×10^6 cells/ml.

[6] = system: YAC-1 tumor cells; assay: Natural killer cell activity, 4 hr chromium release assay
Protocol: as §1
Three week-old C57 BL/6 mice were procured and quarantined for 24 to 48 hours prior to treatment. The five oligopeptides described in tables 2, 3 and 4 were admixed with a 0.4% water solution of carboxymethylcellulose. The solutions were stored at 4° C. until use. Ribavarin (1-β-D-ribofuranosyl-1,2,4-triazole-carboxamide) was used in each subsequent experiment as a control.
as §2
Natural killer (NK) activity of murine cells was determined by testing splenic cells for their ability to lyse YAC-1 tumor cells in a conventional 4 hr chromium release assay as an indicator of NK was expressed as: % chromium release=(experimental counts per minute (cpm)-background cpm)/(maximum cpm-background cpm)

[7] = system: Macrophage activation (IL-1 concentration); parameters: species or system BALB/c mice; settings: mouse, in vivo, Hydrochloride
[8] = Toxicity controls: mortality and weight gain in uninfected mice; type: in vivo; settings: uninfected mice; for Mean Weight Gain: start of treatment to 24 hours after final treatment
Protocol: Groups of 5 uninfected mice were treated the same way and at the same times as described above. These animal were checked daily for survival. Their weigths were taken before the first treatment and 24 hours after the last treatment to determine drug effect on weight gain.

[9] = system: antibody producing cells (SRBC antigen); assay: Plaque forming assay (PFC) in spleen cells of SRBC-immunized mice; type: in vivo
[10] = system: YAC-1 tumor cells; type: in vivo, BALB/c mice; settings: for Mean percent chromium release (2SE), Effector:Target 25:1 / Mean percent chromium release (2SE), Effector:Target 50:1 / Mean percent chromium release (2SE), Effector:Target 100:1: ip, Hydrochloride
[11] = 50 mg/kg, splenocytes, Hydrochloride
[12] = 50 mg/kg i.p. days -1,+1,+3,+5,+7
[13] = 100 mg/kg i.p. days -1,+1,+3,+5,+7
[14] = 200 mg/kg i.p. days -1,+1,+3,+5,+7
[15] = prophylactic treatment, three doses 50-200 mg/kg i.p., Hydrochloride
[16] = 50 mg/kg/day i.p. every other day for 4 injections, splenocytes 24 hr after final treatment, n = 5
[17] = 50 mg/kg, splenocytes 24 hours after final treatment, Hydrochloride

CCCCCCCCCCCCCCCCCCN[C@H](C)C(=O)N[C@@H](CCC(N)=O)C(=O)O.Cl [BCH-527, Octadecyl D-Alanyl L-Glutamine Hydrochloride]
% Cells/Spleen ± SD, B Cells ([1]; 50 mg/kg/day i.p. every other day for 4 injections, anti-Ly5, n = 5): 43 ± 1.5%
% Cells/Spleen ± SD, T Cells ([1]; 50 mg/kg/day i.p. every other day for 4 injections, anti-Thy 1.2, n = 5): 39 ± 2.3%
Effect on B cell counts (in words) [1, 11]: increase % B cells; also recorded: increased B cell counts
Effect on T cell counts (in words) [1, 11]: suppressing T cells; also recorded: suppressed T cell counts
Survivors (%) [2, 12]: 90%
Survivors/total [2, 12]: 9/10
Mean day to death ([2]; 50 mg/kg i.p.): 4.0 ± 0.0 days
Survivors (%) [2, 13]: 78%
Survivors/total [2, 13]: 7/9
Mean day to death ([2]; 100 mg/kg i.p.): 10.5 ± 6.3 days
Survivors (%) [2, 14]: 100%
Survivors/total [2, 14]: 10/10
Mean day to death ([2]; 200 mg/kg i.p.): > 21 days
Effect on death in CMV-challenged mice (in words) [2, 15]: prevented death; also recorded: preventing death
Virus titer in Liver ([3]; Day 3, 50 mg/kg): 3.1±0.7 Log10 CCID50/qram
Virus titer in Lung ([3]; Day 3, 50 mg/kg): < 2.5±0.0 Log10 CCID50/qram
Virus titer in spleen ([3]; Day 3, 50 mg/kg): 6.1±0.6 Log10 CCID50/qram
Virus titer in Liver ([3]; Day 3, 100 mg/kg): 2.9±0.7 Log10 CCID50/qram
Virus titer in Lung ([3]; Day 3, 100 mg/kg): < 2.5±0.0 Log10 CCID50/qram
Virus titer in salivary gland ([3]; Day 3, 100 mg/kg): 3.0±0.4 Log10 CCID50/qram
Virus titer in spleen ([3]; Day 3, 100 mg/kg): 4.7±1.6 Log10 CCID50/qram
Virus titer in Liver ([3]; Day 3, 200 mg/kg): 2.9±0.4 Log10 CCID50/qram
Virus titer in Lung ([3]; Day 3, 200 mg/kg): < 2.5±0.0 Log10 CCID50/qram
Virus titer in salivary gland ([3]; Day 3, 200 mg/kg): < 2.5±0.0 Log10 CCID50/qram
Virus titer in spleen ([3]; Day 3, 200 mg/kg): 5.3±0.4 Log10 CCID50/qram
Virus titer in Liver ([3]; Day 6, 50 mg/kg): 3.1±1.1 Log10 CCID50/qram
Virus titer in Lung ([3]; Day 6, 50 mg/kg): 3.4±0.6 Log10 CCID50/qram
Virus titer in spleen ([3]; Day 6, 50 mg/kg): 4.3±1.2 Log10 CCID50/qram
Virus titer in Liver ([3]; Day 6, 100 mg/kg): < 2.5±0.0 Log10 CCID50/qram
Virus titer in Lung ([3]; Day 6, 100 mg/kg): 3.9±0.8 Log10 CCID50/qram
Virus titer in salivary gland ([3]; Day 6, 100 mg/kg): 2.8±0.3 Log10 CCID50/qram
Virus titer in spleen ([3]; Day 6, 100 mg/kg): 4.9±0.6 Log10 CCID50/qram
Virus titer in Liver ([3]; Day 6, 200 mg/kg): < 2.5±0.0 Log10 CCID50/qram
Virus titer in Lung ([3]; Day 6, 200 mg/kg): 3.1±0.4 Log10 CCID50/qram
Virus titer in salivary gland ([3]; Day 6, 200 mg/kg): 3.5±0.7 Log10 CCID50/qram
Virus titer in spleen ([3]; Day 6, 200 mg/kg): 3.7±0.7 Log10 CCID50/qram
Effect on tissue virus titres (in words) [3, 15]: reduced MCMV tissue virus titres; also recorded: reducing tissue virus titres
Mean CPM of Treated Thymocytes ± SD [4, 16]: 5660 ± 1011 CPM
Effect on macrophage function (in words) [4, 17]: somewhat stimulatory; also recorded: macrophage stimulation
Enzyme Immunoassay, IgM antibody relative to control (100%) [5]: 523%
% Chromium Release ± SD, Effector:Target Ratio 25:1 [6, 16]: 13.9 ± 2.0%
% Chromium Release ± SD, Effector:Target Ratio 50:1 [6, 16]: 24.0 ± 1.7%
Effect on natural killer (NK) cell activity (in words) [6, 17]: significantly stimulate; also recorded: stimulated
IL-1 Conc. (2SE) ([7]; 200 mg/kg/day): 16.6(3.7) μg/ml and 31.4(3.4) μg/ml and 29.1(7.4) μg/ml
Effect on macrophage activation (in words) [7]: significant macrophage activator; also recorded: macrophage stimulation
Survivors (%) ([8]; 50 mg/kg): 100%
Survivors/total ([8]; 50 mg/kg): 5/5
Mean Weight Gain ([8]; 50 mg/kg): 8.4 gm
Survivors (%) ([8]; 100 mg/kg): 100%
Survivors/total ([8]; 100 mg/kg): 5/5
Mean Weight Gain ([8]; 100 mg/kg): 9.0 gm
Survivors (%) ([8]; 200 mg/kg): 100%
Survivors/total ([8]; 200 mg/kg): 5/5
Mean Weight Gain ([8]; 200 mg/kg): 6.9 gm
Plaque Assay, PFC relative to control (100%) ([9]; Experiment 7, mice, 10 mg/kg i.p.): 6843%
Plaque Assay, PFC per 10^6 spleen cells ([9]; Experiment 7, mice, 10 mg/kg i.p., five days after injections): 479 ± 322 PFC per 10^6 spleen cells
Immunomodulating activity (in words) ([9]; plaque-forming assay, Table 1): immunostimulants
Effect on NK cells (in words) ([10]; after 4 injections at 100 and 50 mg/kg/day, […]): strong activation of NK cells
Effect on natural killer cells activity (in words) ([10]; mouse, in vivo): stimulated the natural killer cells activity
Mean percent chromium release (2SE), Effector:Target 25:1 ([10]; mouse, in vivo, 50 mg/kg/day): 10.8(1.3) percent and 12.7(0.4) percent and 14.8(0.9) percent
Mean percent chromium release (2SE), Effector:Target 50:1 ([10]; mouse, in vivo, 50 mg/kg/day): 17.6(1.1) percent and 17.1(0.6) percent and 18.5(1.0) percent
Mean percent chromium release (2SE), Effector:Target 100:1 ([10]; mouse, in vivo, 50 mg/kg/day): 21.2(2.9) percent and 23.3(1.0) percent and 23.9(1.1) percent
Mean percent chromium release (2SE), Effector:Target 25:1 ([10]; mouse, in vivo, 100 mg/kg/day): 10.6(1.8) percent and 11.8(1.7) percent and 16.9(1.3) percent
Mean percent chromium release (2SE), Effector:Target 50:1 ([10]; mouse, in vivo, 100 mg/kg/day): 16.6(1.9) percent and 16.4(1.8) percent and 20.8(1.4) percent
Mean percent chromium release (2SE), Effector:Target 100:1 ([10]; mouse, in vivo, 100 mg/kg/day): 20.0(2.0) percent and 22.3(2.0) percent and 26.5(1.6) percent
Mean percent chromium release (2SE), Effector:Target 25:1 ([10]; mouse, in vivo, 200 mg/kg/day): 11.3(0.6) percent and 8.6(0.6) percent and 9.6(0.9) percent
Mean percent chromium release (2SE), Effector:Target 50:1 ([10]; mouse, in vivo, 200 mg/kg/day): 17.3(1.4) percent and 12.8(0.7) percent and 12.9(0.9) percent
Mean percent chromium release (2SE), Effector:Target 100:1 ([10]; mouse, in vivo, 200 mg/kg/day): 20.4(2.4) percent and 18.2(1.0) percent and 17.6(1.1) percent
